From publication PMC5465072 (Scientific Reports, 2017)
“Also recorded” adds a separate entry of the source. Square brackets hold non-standard residues; d marks the D form. Ends that are not written are not given here. Peptide text beside a SMILES is read from it. Phe(4-Cl) = N[C@@H](Cc1ccc(Cl)cc1)C(=O)O

Tests used:
[1] = target: His6-PA488–735 / GST-CMG2_38–218 interaction (UniProt P13423+P58335); test: biochemical; design: species or system Bacillus anthracis PA / human CMG2
[2] = target: His6-PA596–735 / GST-CMG2_38–218 interaction (Homo sapiens, UniProt P58335); test: biochemical; format: biochemical, Bacillus anthracis PA / human CMG2
Chain of His6-PA596–735 / GST-CMG2_38–218 interaction (P58335 38-218 limits assumed): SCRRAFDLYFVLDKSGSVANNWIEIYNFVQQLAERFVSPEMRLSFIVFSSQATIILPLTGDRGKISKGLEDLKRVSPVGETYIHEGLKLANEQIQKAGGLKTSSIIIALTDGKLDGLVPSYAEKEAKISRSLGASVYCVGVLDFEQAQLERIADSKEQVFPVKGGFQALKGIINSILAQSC

CMG2_38–218 = CMG2_38–218 (Homo sapiens, UniProt P58335); test: biochemical; format: binding
Chain of CMG2_38–218 (P58335 38-218): as the sequence (P58335 38-218 limits assumed) above

J774 cells = format: cell-based

Chain of His6-PA488–735 / GST-CMG2_38–218 interaction (P13423 517-764 limits assumed): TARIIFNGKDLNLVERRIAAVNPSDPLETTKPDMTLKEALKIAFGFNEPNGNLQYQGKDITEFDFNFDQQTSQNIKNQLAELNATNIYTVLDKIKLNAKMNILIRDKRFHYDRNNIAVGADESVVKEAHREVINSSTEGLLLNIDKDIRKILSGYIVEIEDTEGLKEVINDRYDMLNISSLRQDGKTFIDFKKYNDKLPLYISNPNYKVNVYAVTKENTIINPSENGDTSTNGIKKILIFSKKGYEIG
Chain of His6-PA488–735 / GST-CMG2_38–218 interaction (P58335 38-218 limits assumed): as the sequence (P58335 38-218 limits assumed) above

Q: What does the source list for H-CMNHAPA-OH [CMNHAPA]?
A: IC50 [1]: 522 ± 47.8 µM; fold loss of activity in PA/CMG2 ELISA over the parent peptide CMNHFPA [1]: 10 fold

Q: How did the “IC50 for disruption of the interaction of His6-PA488–735 and GST-CMG2_38–218” value [1] turn out when FCRTL was run?
A: Its value is “inactive”.

Q: How did the IC50 [1] turn out when CLRFT [CLRFT] was run?
A: The IC50 was 77.1 ± 9.5 µM.

Q: What about the IC50 [2] of the same molecule?
A: The IC50 was 71.3 ± 6.5 µM.

Q: What about the Kd (CMG2_38–218) of the same molecule?
A: The Kd was 30.2 ± 1.2 µM.

Q: For (4-Cl-F)CRTL, which “protection of J774 cells from lethal toxin” value (J774 cells) is on record?
A: Its value is “No protective effect; also recorded: no such protection”.

Q: Which results are given for CMNHFPA [CMNHFPA]?
A: IC50 [1]: 49.8 ± 2.7 µM; IC50 for disruption of the interaction of His6-PA596–735 and GST-CMG2_38–218 [2]: not active; also recorded: lost all activity

Q: What does the source list for HPCNAMF [HPCNAMF]?
A: IC50 [1]: 153 ± 9.3 µM; fold loss of activity in PA/CMG2 ELISA over the parent peptide CMNHFPA [1]: 3 fold

Q: CC(C)C[C@H](NC(=O)[C@@H](N)CS)C(=O)N[C@@H](CCCNC(=N)N)C(=O)N[C@@H](Cc1ccc(Cl)cc1)C(=O)N[C@H](C(=O)O)[C@@H](C)O [CLR(4-Cl-F)T] (H-CLR[Phe(4-Cl)]T-OH) was tested. Which “concentration that protects J774 cells from lethal toxin” value (J774 cells) did it give?
A: Its value is no less than 50 µM.

Q: For CLRPT [CLRPT], which IC50 [1] is on record?
A: The IC50 was 153 ± 2.9 µM.
